Columns and labels:
[1] = Acute toxicity, oral, LD50 (Litchfield and Wilcoxon); settings: mouse, in vivo, fasted male mice, confidence limits p=95% in brackets
Description: (1) The acute toxicity was determined on fasted male mice. The tested substances were orally administered and LD50 values (lethal dose for 50% of animals) were calculated according to the method of Litchfield and Wilcoxon (J. Pharmacol. exp. Ther. 96, 94-113, 1949). These LD50 values are given in mg/kg and also, when possible, with their confidence limits for p=95%.

[2] = test system: unanaesthetized, hypertension-suffering rat; assay: Antihypertensive activity (systolic arterial pressure), oral; assay type: in vivo; settings: 60 mg/kg, hypertensive rat, 3 hours
Summary of the method: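 Conscious hypertensive rats given compound orally at 60 mg/kg; systolic arterial pressure measured every 30 min for 2 h pre-dose and 3 h post-dose. Scored O (no fall), + (<10 mm Hg), ++ (10–20 mm Hg), +++ (>20 mm Hg).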

femoral artery = assay: Vasodilator activity, femoral artery (technique of perfused paw); assay type: in vivo; set-up: key: O: no action; +: slight activity; ++: effect equal to half the effect of papaverine; +++: effect equal to that of papaverine; ++++: effect higher than that of papaverine; settings: intra-arterial, 30 mg/kg, anaesthetized dog, vs papaverine at same dose
Description: (3) The vasodilator activity was measured at the level of femoral artery on anaesthetized dog (technique of perfused paw). The tested substances were given intra-arterially at the rate of 30 mg/kg. Results are expressed with respect to papaverine tested at the same dose.
++: effect equal to half the effect of papaverine.
+++: effect equal to that of papaverine.
++++: effect higher than that of papaverine.

[3] = test system: guinea-pig ileum (histamine contractions); assay: Antispasmodic activity in vitro, contractions caused by histamine; settings: added 15 minutes before spasm-producing agent
Description: (§1) (4) The antispasmodic activity was measured in vitro, on guinea-pig ileum, the contractions of which were caused by histammne (Hist.), acetylcholine (Achol) or barium chloride (BaCl2). The tested products were added to perfusion bath 15 minutes before the spasm-producing agents.
(§2) The dose is given in micograms (μg) per ml of bath causing complete spasm inhibition.

[4] = test system: guinea-pig ileum (acetylcholine contractions); assay: Antispasmodic activity in vitro, contractions caused by acetylcholine; settings: added 15 minutes before spasm-producing agent
Description: as §1, §2

[5] = test system: guinea-pig ileum (barium chloride contractions); assay: Antispasmodic activity in vitro, contractions caused by barium chloride; settings: added 15 minutes before spasm-producing agent
Description: as §1, §2

Row | SMILES | LD50 [1] [mg/kg] | ANTIHYPERTENSIVE ACTIVITY [2] | VASODILATOR ACTIVITY (femoral artery) | ANTISPASMODIC ACTIVITY HIST. (dose causing complete spasm inhibition) [3] [μg per ml] | ANTISPASMODIC ACTIVITY ACHOL (dose causing complete spasm inhibition) [4] [μg per ml] | ANTISPASMODIC ACTIVITY BaCl2 (dose causing complete spasm inhibition) [5] [μg per ml]
1 | CC(NCCCCc1ccc(Cl)cc1)C(O)c1ccc2c(c1)CCCS2 (stereo not drawn) [No 23] | ~2100 | +++ (reduction higher than 20 mm Hg) | ++++ | 0.8 | 1.7 | 0.8
2 | CC(NCCOc1ccccc1)C(O)c1ccc2c(c1)CCCS2 (stereo not drawn) [No 20] | > 4000 | +++ (reduction higher than 20 mm Hg) | +++ | 8.3 | 3.3 | 8.3
3 | CC(NCCC(c1ccccc1)c1ccccc1)C(O)c1ccc2c(c1)CCCS2 (stereo not drawn) [No 16] | > 4000 | ++ (reduction of 10 to 20 mm Hg) | +++ | 0.3 | 0.8 | 0.33
4 | CC1Cc2cc(C(O)C(C)NCCCCc3ccccc3)ccc2S1 (stereo not drawn) [No 19] | 1550 | +++ (reduction higher than 20 mm Hg) | +++ | 0.8 | 1.7 | 0.8

Reference: patent publication US4638070A, “Heterocyclic amino-alcohol derivatives” (Continental Pharma, priority 1980, dated 1987)
